# Assay results taken from patent US7981863B2, “Treatment of Parkinson's disease with PDGF” (Neuronova AB, priority 2001, dated 2011).
# pIC50: −log10 of the molar value.
# Assays:
# [1] = test system: cultured, non-adherent mouse neurospheres; assay: Intracellular ATP assay, proliferation of cultured mouse neurospheres; assay type: cell-based; settings: FIG. 1
# Method: The anterior lateral wall of the lateral ventricle of 5-6 week old mice was enzymatically dissociated in 0.8 mg/ml hyaluronidase and 0.5 mg/ml trypsin in DMEM containing 4.5 mg/ml glucose and 80 units/ml DNase at 37° C. for 20 min. The cells were gently triturated and mixed with three volumes of Neurosphere medium (DMEM/F12, B27 supplement, 125 mM HEPES pH 7.4) containing 20 ng/ml EGF (unless otherwise stated), 100 units/ml penicillin and 100 μg/ml streptomycin. After passing through a 70 μm strainer, the cells were pelleted at 160×g for 5 min. The supernatant was subsequently removed and the cells resuspended in Neurosphere medium supplemented as above, plated out in culture dishes and incubated at 37° C. Neurospheres were ready to be split approximately 7 days after plating.
# To split the neurospheres, cells were collected by centrifugation at 160×g for 5 min. The conditioned supernatant (conditioned medium) was removed and saved. The neurospheres were resuspended in 0.5 ml Trypsin/EDTA in HBSS (1×), incubated at 37° C. for 2 min and triturated gently to aid dissociation. Following a further 3 min incubation at 37° C. and trituration, 3 volumes of ice cold Neurosphere medium medium w/o EGF were added to stop further trypsin activity. […]
# After 3 days of treatment, intracelluar ATP was measured using the ATP SL kit (Biothema) according to the manufacturer's instructions.
# Mouse Neural Stem Cells = assay: Neuronal differentiation (β-III Tubulin) of adult mouse neural stem cells; assay type: cell-based; settings: 1 nM, 7 days
# Method: Adult mouse neurosperes were dissociated with trypsin (Gibco) into single cells and transferred to poly-D-Lysine plates (BD) in the above culture medium, without growth factors, supplemented with 1% Fetal Calf Serum (Gibco). The cells were incubated over night to adhere to the plate. The medium was changed to culture medium, without growth factors, supplemented with 1 nM PDGF-AA or PDFG-BB (both from R&D Systems). The medium with new substance added every second day. The cells were incubated for a total of 7 days.
# The cells were washed two times with PBS (Gibco) and fixed for 15 min RT with 4% Formaldehyde (Sigma) and permeabilized 20 min RT in 0.1% Triton X-100 (Sigma) in PBS. After fixation and permeabilization the cells were labelled with mouse monoclonal anti-β-III Tubulin (1:500 Promega). Primary antibody was visualized with anti mouse Texas-Red (1:100 Vector Laboratories). All antibodies were diluted in PBS with 0.1% Triton X-100.
# The cells were washed twice with PBS (Gibco) and lysed with 200 ul lysis buffer/well. The lysis buffer contained PBS, 0.1% Triton X-100, 1 mM EDTA and 1 tab1. Protease inhibitor cocktail (Roche). The samples were run on a 4-12% Bis-Tris gel (Novex) under reduced conditions with MOPS buffer (Novex) and blotted onto a Hybond ECL nitrocellulose membrane (Amersham Biotech). Blocked in 5% ECL-Block (Amersham Biotech) in PBS+0.1% Tween 20 (Sigma). The membranes were labelled with mouse monoclonal anti-β-III Tubulin (1:5000 Promega). The primary antibody was detected using a secondary antibody anti-mouse-HRP (1:10000 Amersham Biotech) and ECL Plus+ Western Blot Detection Kit (Amersham Biotech). All antibodies were diluted in PBS with 0.1% Triton X-100, 1% ECL Block. The signal were then captured on ECL Hyper Film (Amersham Biotech)
# [2] = test system: Mouse Cultured Neural Stemcells/Progenitors; assay: GFAP and β-III Tubulin in adherent mouse neural stem cells (Western blot, immunocytochemistry); assay type: cell-based
# Method: NSCs, cultured as described above, were seeded from passage 2 into DMEM/F12 supplemented with B27 into a 24-well plate (poly-D-lysine-coated) as single cells (70.000 cells/well), to which PDGF-AA was added at the concentration of 1 nM. The cells were then differentiated for 5 days changing medium plus/minus PDGF-AA every 48 hours. At day 6 the cells were harvested and Western blots were performed as described elsewhere (Patrone C et al (1999) Proc Natl Acad Sci USA. 96(19):10905-10). A neuronal marker antibody against β-III Tubulin, 1:5000 (BioSite), or a glial marker antibody against glial fibrillary acidic protein (GFAP) 1:5000, (DAKO) was used to measure phenotypic fates.
# In another set of experiments the effects of PDGF-AA were studied with immunocytochemical methods in fixed adherently cultured neural stem cells. […] In other experiments with PDGF-AA, analyzed by immunocytochemistry, it was shown that the factor caused a general shift from a stem cell phenotype to a progenitor phenotype in that cultures contained both of the markers, GFAP and β-III Tubulin. […] In concurrent experiments the effect of PDGF-BB was also studied.
# Flk-1 = settings: Calbiochem product data; cited from earlier work
# [3] = test system: rat neural stem cells from the adult lateral ventricle wall; assay: Expansion of rat neural stem cell cultures, total cell counts at 7 days; assay type: cell-based; settings: for block of the VEGF response / growth of neural stem cell cultures: total cell counts at 7 days; for growth of neural stem cell cultures: growth conditions (EGF and FGF-2), no recombinant VEGF, FIG. 30
# Method: Neural stem cells were prepared according to the attached protocol. Cells were grown in serum-free medium, subcloned and used between passage 6 and 10. If not otherwise mentioned the experiments consisted of triplets for analysis and were independently repeated at least 3 times.
# Basal Medium: Neurobasal medium (NB, Gibco BRL) & B27 supplement (Gibco BRL).
# Growth Medium: NB, B27 supplement+20 ng/ml of FGF-2 (R&D Systems)+20 ng/ml EGF (R&D Systems)+2 μg/ml heparin (Sigma, Germany).
# Cells were plated in Growth medium at 10.000 cells/ml and after 2 days switched to the experimental condition. Cells were kept under the experimental condition for 7 days.
# Adult female Fischer-344 rats (3-4 months; Charles River, Germany) were killed via cervical dislocation, the brains of each rat were removed and stored at 4° C. in DPBS (PAN, Germany) with 4.5 g/L glucose (Merck, Germany) (DPBS/glu). Overlying meninges and blood vessels were removed. Ependymal zone including subependymal/subventricular zone form the lateral wall of the lateral ventricle were aseptically removed. The dissected tissue was transferred to fresh DPBS/glu, washed once, transferred to petri-dishes and dissociated mechanically into a single cell suspension. The cell suspension was washed in DPBS/glu in order to rinse off excess blood and resuspended in PPD-solution containing 0.01% Papain (Worthington Biochemicals, England), 0.1% dispase II (Boehringer, Germany), 0.01% DNase I (Worthington Biochemicals, England) and 12.4 mM MgSO4 in HBSS (PAN, Germany) without Mg^++/Ca^++ (PAA, Germany) and digested for 30 to 40 min at room temperature. The cell solution was triturated every 10 min. Dissociated cells were collected and resuspended in serum-free DMEM/F12 medium containing 2 mM L-glutamine and 0.1 g/L penicillin/streptomycin and washed three times with accurate trituration with a blue tip. Finally the single cell suspension was resuspended in Neurobasal medium (Gibco BRL, Germany) supplemented with B27 (Gibco BRL, Germany) (NB/B27), 2 mM L-glutamine (PAN, Germany), 0.1 g/L penicillin/streptomycin (PAN, Germany), 2 μg/ml heparin (Sigma, Germany), 20 ng/ml bFGF-2 (R&D Systems, Germany) and 20 ng/ml EGF (R&D Systems, Germany). Live cells were counted by trypan blue exclusion assay in a hemocytometer. Cells were seeded in T-25 culture flasks and cultures were maintained at 37° C. in an incubator with 95% air, 5% CO2. Single cells began to form spheres within 5 to 7 days of suspension culture and continued to grow in mass and number over the next weeks. Media were changed every 7 days.
# The culture medium containing floating neurospheres was collected in a 15 ml centrifuge tube and centrifuged at 800 rpm. The pellet was resuspended in 200 μl of Accutase (Innovative Cell Technologies Inc., USA, distributed by PAA, Germany) and triturated about 10 times using a pipette. Then, the cell suspension was incubated at 37° C. for 10 min. Dissociated spheres were again triturated and resuspended in 800 μl of NB/B27 medium. An aliquot was counted by trypan blue exclusion assay in a hemocytometer to determine the amount of live and dead cells. 1×10^5 cells were plated in T75 culture flasks for long term passaging (10 ml of culture medium per flask) in NB/B27 medium. The cells obtained after Accutase-treatment of primary neurospheres proliferated and yielded secondary neurospheres. Secondary neurospheres were passaged 7 to 9 days after plating primary neurosphere cells. Similar to primary cultures and primary neurospheres, single cells obtained after dissociation of secondary neurospheres proliferated and yielded tertiary neurospheres. […]
# adult rats = settings: four weeks after 7 days of continuous VEGF infusion into the lateral ventricle
# [4] = test system: cells from the lateral ventricle wall; settings: after intraventricular infusion, compared to aCSF controls; FIG. 33
# [5] = test system: Neural stem cell cultures; settings: 50 ng/ml VEGF, 100 nM PADQ or 700 nM SU1498 for 7 days
# Method: BrdU (10 μM) was added to the culture medium 24 hrs before cells were harvested and lysed. DNA was extracted and BrdU content was determined using an anti-BrdU-ELISA. The data are presented as percent changes in optical density compared to control (Growth medium).
# [6] = 1 nM, 6 days, adherent culture, compared to treatment with EGF
# [7] = fixed adherently cultured neural stem cells
# [8] = basal medium, VEGF 50 ng/ml, PADQ 100 nM, SU1498 700 nM
# [9] = growth conditions (including EGF and FGF-2)
compound,measurement,setting,value
"PDGF-AA: human recombinant PDGF-AA, platelet derived growth factor A-chain homodimer",effect on the proliferative effect of PDGF-BB when added together,"[1]; PDGF-AA added together with PDGF-BB, B27 medium",did not alter the proliferative effect of PDGF-BB
same,proliferative effect (intracellular ATP),"[1]; growth media supplemented with B27, 1 nM-0.0005 nM, 3 days of treatment",weaker compared to BB
same,number of β-III Tubulin positive cells in culture,"Mouse Neural Stem Cells; compared to the control, FIG. 5",significantly increase the number of β-III Tubulin positive cells
same,levels of β-III Tubulin protein (Western blot),"Mouse Neural Stem Cells; compared with the control, FIG. 6",significantly increased levels of β-III Tubulin protein
same,neuronal differentiation of cultured mouse neural stem cells/progenitors,Mouse Neural Stem Cells; FIG. 5 and FIG. 6,trigger neuronal differentiation
same,GFAP (Western blot),[2]; [6],downregulation of GFAP
same,β-III Tubulin neuronal marker (Western blot),[2]; [6],significant increase
same,GFAP (immunocytochemistry),[2]; [7],down regulation of GFAP
same,β-III Tubulin (immunocytochemistry),[2]; [7],upregulation of β-III Tubulin
COc1cc2ncnc(Nc3ccc(Cl)cc3F)c2cc1OC [PADQ],pIC50,Flk-1,7.00
same,block of the VEGF response,[3]; [8],able to block the VEGF response
same,growth of neural stem cell cultures,[3],significantly reduce the growth
same,block of the VEGF response,[3]; [9],able to block the VEGF response
VEGF,stimulation of proliferation of neural stem cell cultures,"[3]; different concentrations, 7 days, FIG. 24, FIG. 25",dose-dependent stimulatory effect
same,ED50 (expansion of neural stem cell cultures),"[3]; growth medium, 7 days, FIG. 27",~0.01 µg/mL
same,concentration of maximal stimulation,"[3]; growth medium, 7 days, FIG. 27",50 ng/mL
same,BrdU labeled cells in the dentate gyrus,adult rats,marked increase
same,number of spheres formed in culture from lateral ventricle wall cells,[4],significantly increased
same,BrdU incorporation (proliferation ELISA),[5],more BrdU
same,DNA strand breaks (apoptosis ELISA),[5],reduced the amount of DNA strand breaks
"CC(C)c1cc(/C=C(\C#N)C(=O)NCCCc2ccccc2)cc(C(C)C)c1O [SU1498, (E)-3-(3,5-Diisopropyl-4-hydroxyphenyl)-2-[(3-phenyl-n-propyl)amino-carbonyl]acrylonitrile]",pIC50,Flk-1,6.15
same,block of the VEGF response,[3]; [8],able to block the VEGF response
same,growth of neural stem cell cultures,[3],significantly reduce the growth
same,block of the VEGF response,[3]; [9],able to block the VEGF response
